PubChem BioAssay (NCI)
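1) Cells in 96-well plates. 2) Compound, 48 h, 5 concentrations. 3) Linear interpolation between surrounding doses. 4) Unreached endpoint = highest concentration. Abbreviation: GI50, concentration required for 50% inhibition of growth. TGI marks complete inhibition of growth.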

Experiments:
Assay in all cases: DTP human tumour cell line panel, 48 h
[1] = test system: OVCAR-4 ovarian
[2] = test system: SK-OV-3 ovarian
[3] = test system: EKVX NSCLC
[4] = test system: 786-0 renal
[5] = test system: SF-268 CNS
[6] = test system: UO-31 renal
[7] = test system: DU-145 prostate
[8] = test system: RXF 393 renal
[9] = test system: SF-539 CNS
[10] = test system: SK-MEL-5 melanoma
[11] = test system: SK-MEL-28 melanoma
[12] = test system: HOP-92 NSCLC
[13] = test system: ACHN renal
[14] = test system: SNB-75 CNS
[15] = test system: OVCAR-5 ovarian
[16] = test system: A498 renal
[17] = test system: MALME-3M melanoma
[18] = test system: CAKI-1 renal
[19] = test system: MDA-MB-435
[20] = test system: TK-10 renal
[21] = test system: OVCAR-3 ovarian
[22] = test system: BT-549 breast
[23] = test system: KM12 colon
[24] = test system: UACC-62 melanoma
[25] = test system: NCI-H23 lung
[26] = test system: PC-3 prostate
[27] = test system: HS 578T breast
[28] = test system: HOP-62 NSCLC

Compound CC[C@]12C=CCN3CC[C@@]4(c5cc(NC(=O)COc6cc(O)c7c(=O)cc(-c8ccccc8)oc7c6)c(OC)cc5N(C)[C@H]4[C@@](O)(C(=O)OC)[C@@H]1OC(C)=O)[C@@H]32 has a GI50 [1] of 1.88 µM, a TGI [1] of 3.42 µM and a GI50 [2] of 2.15 µM. It also gave a TGI [2] of 4.79 µM, a GI50 [3] of 2 µM and a TGI [3] of 4.6 µM. For the same compound, the GI50 [4] was 1.79 µM, the TGI [4] was 3.53 µM and the GI50 [5] was 1.98 µM. It also gave a TGI [5] of 4.51 µM, a GI50 [6] of 1.68 µM and a TGI [6] of 3.08 µM. It also gave a GI50 [7] of 2.4 µM, a TGI [7] of 5.57 µM and a GI50 [8] of 1.74 µM. For the same compound, the TGI [8] was 3.2 µM, the GI50 [9] was 1.67 µM and the TGI [9] was 3.2 µM. It also gave a GI50 [10] of 1.81 µM, a TGI [10] of 3.34 µM and a GI50 [11] of 1.75 µM. The TGI [11] was 3.2 µM, the GI50 [12] was 1.36 µM and the TGI [12] was 2.98 µM. For the same compound, the GI50 [13] was 1.67 µM, the TGI [13] was 3.2 µM and the GI50 [14] was 1.34 µM. It also gave a TGI [14] of 3.97 µM, a GI50 [15] of 1.72 µM and a TGI [15] of 3.2 µM. For the same compound, the GI50 [16] was 1.48 µM, the TGI [16] was 3.1 µM and the GI50 [17] was 1.58 µM. It also gave a TGI [17] of 2.97 µM, a GI50 [18] of 1.81 µM and a TGI [18] of 4.29 µM. It also gave a GI50 [19] of 1.56 µM, a TGI [19] of 3.02 µM and a GI50 [20] of 2.15 µM. For the same compound, the TGI [20] was 4.84 µM, the GI50 [21] was 2.81 µM and the TGI [21] was 7.17 µM. The GI50 [22] was 1.64 µM, the TGI [22] was 3.18 µM and the GI50 [23] was 2.07 µM. The TGI [23] was 5.14 µM, the GI50 [24] was 1.85 µM and the TGI [24] was 3.69 µM. The GI50 [25] was 1.85 µM, the TGI [25] was 3.45 µM and the GI50 [26] was 1.31 µM. For the same compound, the TGI [26] was 2.78 µM, the GI50 [27] was 1.99 µM and the TGI [27] was 4.79 µM. It also gave a GI50 [28] of 1.88 µM and a TGI [28] of 3.94 µM.
